Assay results published in patent US20110092547A1 (priority 2007, published 2011).
pIC50: −log10 of the molar value.

Biological target: T1, human DGAT1 (Homo sapiens, UniProt O75907)
T1 construct: made in house; host or cells: Sf9 insect cells (recombinant baculovirus); membrane fraction
T1 sequence (O75907 1-488): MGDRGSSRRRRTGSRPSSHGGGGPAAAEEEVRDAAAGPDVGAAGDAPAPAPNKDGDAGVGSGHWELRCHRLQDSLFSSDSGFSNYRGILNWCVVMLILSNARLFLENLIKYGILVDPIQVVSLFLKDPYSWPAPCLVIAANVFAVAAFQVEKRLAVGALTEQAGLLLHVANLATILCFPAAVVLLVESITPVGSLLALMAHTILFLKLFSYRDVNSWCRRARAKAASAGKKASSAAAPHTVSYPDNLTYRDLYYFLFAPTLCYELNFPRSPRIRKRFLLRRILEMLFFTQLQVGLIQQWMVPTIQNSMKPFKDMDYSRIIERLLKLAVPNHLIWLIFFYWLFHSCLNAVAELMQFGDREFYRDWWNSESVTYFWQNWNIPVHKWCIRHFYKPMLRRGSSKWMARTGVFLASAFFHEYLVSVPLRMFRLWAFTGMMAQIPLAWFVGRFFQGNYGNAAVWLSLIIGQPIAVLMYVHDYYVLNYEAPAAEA
Test: Human enzyme assay, further developed assay (14C oleoyl CoA, 96 well plate)
Type: biochemical
Conditions: human DGAT1 expressed in insect cell (sf9) membranes
Experimental: The in vitro assay to identify DGAT1 inhibitors uses human DGAT1 expressed in insect cell membranes as the enzyme source (Proc. Natl. Acad. Sci. 1998, 95, 13018-13023). Briefly, sf9 cells were infected with recombinant baculovirus containing human DGAT1 coding sequences and harvested after 48 h. Cells were lysed by sonication and membranes isolated by centrifuging at 28000 rpm for 1 h at 4° C. on a 41% sucrose gradient. The membrane fraction at the interphase was collected, washed, and stored in liquid nitrogen.
In a further developed assay, DGAT1 activity was assayed by a modification of the method described by Coleman (Methods in Enzymology 1992, 209, 98-102). Compound at 0.00003-10 μM (final cone) was incubated with 25 μg/ml (final cone) membrane protein, 5 mM MgCl2, and 100 μM 1,2 dioleoyl-sn-glycerol in a total assay volume of 200 μl in a 96 well plate. The reaction was started by adding ^14C oleoyl coenzyme A (30 μM final concentration) and incubated at room temperature for 30 minutes. The reaction was stopped by adding 300 μl 2-propanol:heptane 7:1. Radioactive triolein product was separated into the organic phase by adding 200 μl heptane and 200 μl 0.1 M carbonate buffer pH 9.5. DGAT1 activity was quantified by counting aliquots of the upper heptane layer by liquid scintillography.

pIC50 | SMILES
7.68 | O=C(Nc1ccc(O[C@H]2CC[C@H](C(=O)O)CC2)nc1)c1nnc(Nc2ccc(Cl)cc2Cl)o1 [Example 23, (1r,4r)-4-(5-(5-(2,4-dichloro-phenylamino)-1,3,4-oxadiazole-2-carboxamido)pyridin-2-yloxy)cyclo-hexane-carboxylic acid]
8.00 | O=C(Nc1ccc(O[C@H]2CC[C@@H](C(=O)O)CC2)nc1)c1nnc(Nc2ccc(F)c(C(F)(F)F)c2)o1 [Example 8, (1s,4s)-4-(5-(5-(4-fluoro-3-(trifluoromethyl)phenylamino)-1,3,4-oxadiazole-2-carboxamido)pyridin-2-yloxy)cyclohexanecarboxylic acid]
7.96 | O=C(Nc1ccc(OC2CCC(C(=O)O)CC2)nc1)c1nnc(Nc2ccc(OC(F)F)cc2)o1 (stereo not drawn) [Example 21, 4-[(5-{[(5-{[4-(difluoromethoxy)phenyl]amino}-1,3,4-oxadiazol-2-yl)carbonyl]amino}pyridin-2-yl)oxy]cyclohexanecarboxylic acid]
7.57 | Cc1cc(NC(=O)c2nnc(Nc3ccc(F)c(F)c3)o2)cnc1O[C@H]1CC[C@@H](C(=O)O)CC1 [Example 17, (1s,4s)-4-(5-(5-(3,4-difluorophenylamino)-1,3,4-oxadiazole-2-carboxamido)-3-methylpyridin-2-yloxy)cyclohexanecarboxylic acid]
8.13 | O=C(Nc1ccc(O[C@H]2CC[C@@H](C(=O)O)CC2)nc1)c1nnc(Nc2ccc(Cl)cc2Cl)o1 [Example 12, (1s,4s)-4-(5-(5-(2,4-dichlorophenylamino)-1,3,4-oxadiazole-2-carboxamido)pyridin-2-yloxy)cyclohexanecarboxylic acid]
6.82 | COc1cc(NC(=O)c2nnc(Nc3ccc(F)c(Cl)c3)o2)cnc1O[C@H]1CC[C@@H](C(=O)O)CC1 [Example 56, (1s,4s)-4-(5-(5-(3-Chloro-4-fluorophenylamino)-1,3,4-oxadiazole-2-carboxamido)-3-methoxypyridin-2-yloxy)cyclohexanecarboxylic acid]
7.85 | O=C(Nc1cnc(O[C@H]2CC[C@@H](C(=O)O)CC2)c(Cl)c1)c1nnc(Nc2ccc(F)c(Cl)c2)o1 [Example 48, (1s,4s)-4-(3-Chloro-5-(5-(3-chloro-4-fluorophenylamino)-1,3,4-oxadiazole-2-carboxamido)pyridin-2-yloxy)cyclohexanecarboxylic acid]
8.10 | Cc1ccc(Nc2nnc(C(=O)Nc3ccc(O[C@H]4CC[C@@H](C(=O)O)CC4)nc3)o2)cc1Cl [Example 15, (1s,4s)-4-(5-(5-(3-chloro-4-methylphenylamino)-1,3,4-oxadiazole-2-carboxamido)pyridin-2-yloxy)cyclohexanecarboxylic acid]
8.68 | O=C(Nc1ccc(O[C@H]2CC[C@@H](C(=O)O)CC2)nc1F)c1nnc(Nc2ccc(F)c(Cl)c2)o1 [Example 55, (1s,4s)-4-(5-(5-(3-Chloro-4-fluorophenylamino)-1,3,4-oxadiazole-2-carboxamido)-6-fluoropyridin-2-yloxy)cyclohexanecarboxylic acid]
7.92 | O=C(Nc1ccc(OC2CCC(C(=O)O)CC2)nc1)c1nnc(Nc2cc(F)c(F)cc2F)o1 (stereo not drawn) [Example 19, 4-({5-[({5-[(2,4,5-trifluorophenyl)amino]-1,3,4-oxadiazol-2-yl}carbonyl)amino]pyridin-2-yl}oxy)cyclohexanecarboxylic acid]
7.96 | O=C(Nc1ccc(O[C@H]2CC[C@@H](C(=O)O)CC2)nc1)c1nnc(Nc2ccc(Br)cc2Cl)o1 [Example 13, (1s,4s)-4-(5-(5-(4-bromo-2-chlorophenylamino)-1,3,4-oxadiazole-2-carboxamido)pyridin-2-yloxy)cyclohexanecarboxylic acid]
8.00 | O=C(Nc1ccc(O[C@H]2CC[C@@H](C(=O)O)CC2)nc1)c1nnc(Nc2cccc(Cl)c2)o1 [Example 7, (1s,4s)-4-(5-(5-(3-chlorophenylamino)-1,3,4-oxadiazole-2-carboxamido)pyridin-2-yloxy)cyclohexanecarboxylic acid]
8.14 | CC1(C(=O)O)CCC(Oc2ccc(NC(=O)c3nnc(Nc4ccc(Cl)cc4Cl)o3)cn2)CC1 (stereo not drawn) [Example 67, 4-(5-((5-((2,4-dichlorophenyl)amino)-1,3,4-oxadiazole-2-carbonyl)amino)pyridin-2-yl)oxy-1-methylcyclohexane-1-carboxylic acid]
8.08 | O=C(O)C[C@H]1CC[C@@H](Oc2ccc(NC(=O)c3nnc(Nc4ccc(Cl)cc4Cl)o3)cn2)CC1 [Example 54, 2-((1s,4s)-4-(5-(5-(2,4-Dichlorophenylamino)-1,3,4-oxadiazole-2-carboxamido)pyridin-2-yloxy)cyclohexyl)acetic acid]
7.44 | O=C(Nc1ccc(O[C@H]2CC[C@H](C(=O)O)CC2)nc1)c1nnc(Nc2cc(F)c(F)cc2F)o1 [Example 22, (1r,4r)-4-(5-(5-(2,4,5-trifluorophenylamino)-1,3,4-oxadiazole-2-carboxamido)pyridin-2-yloxy)cyclohexanecarboxylic acid]
7.72 | O=C(Nc1ccc(O[C@H]2CC[C@H](C(=O)O)CC2)nc1)c1nnc(Nc2cccc(Cl)c2)o1 [Example 27, (1r,4r)-4-(5-(5-(3-chloro-phenylamino)-1,3,4-oxadiazole-2-carboxamido)pyridin-2-yloxy)cyclo-hexane-carboxylic acid]
6.39 | COc1cc(NC(=O)c2nnc(Nc3ccc(F)c(F)c3)o2)cnc1O[C@H]1CC[C@@H](C(=O)O)CC1 [Example 57, (1s,4s)-4-(5-(5-(3,4-Difluorophenylamino)-1,3,4-oxadiazole-2-carboxamido)-3-methoxypyridin-2-yloxy)cyclohexanecarboxylic acid]
7.66 | O=C(Nc1cnc(O[C@H]2CC[C@@H](C(=O)O)CC2)c(Cl)c1)c1nnc(Nc2ccc(Cl)cc2Cl)o1 [Example 46, (1s,4s)-4-(3-Chloro-5-(5-(2,4-dichlorophenylamino)-1,3,4-oxadiazole-2-carboxamido)pyridin-2-yloxy)cyclohexanecarboxylic acid]
7.60 | O=C(Nc1ccc(O[C@H]2CC[C@H](C(=O)O)CC2)nc1)c1nnc(Nc2ccc(F)c(C(F)(F)F)c2)o1 [Example 29, (1r,4r)-4-(5-(5-(4-fluoro-3-(trifluoro-methyl)phenylamino)-1,3,4-oxadiazole-2-carboxamido)pyridin-2-yloxy)cyclo-hexane-carboxylic acid]
7.30 | COc1cc(O[C@H]2CC[C@@H](C(=O)O)CC2)ncc1NC(=O)c1nnc(Nc2ccc(F)c(F)c2)o1 [Example 43, (1s,4s)-4-(5-(5-(3,4-Difluorophenylamino)-1,3,4-oxadiazole-2-carboxamido)-4-methoxypyridin-2-yloxy)cyclohexanecarboxylic acid]
7.77 | CC(C)c1ccc(Nc2nnc(C(=O)Nc3ccc(O[C@H]4CC[C@H](C(=O)O)CC4)nc3)o2)cc1 [Example 30, (1r,4r)-4-(5-(5-(4-isopropyl-phenylamino)-1,3,4-oxadiazole-2-carboxamido)pyridin-2-yloxy)cyclo-hexane-carboxylic acid]
